Activity calls are given as the source filed them. No cut-off for these calls is given here.
Assays:
[1] = tested on: HL-60; assay: Induction of apoptosis in human HL60 cells assessed as loss of mitochondrial membrane potential using CMTMRos after 24 hrs by flow cytometry; assay type: functional, cell-based
[2] = tested on: HL-60; assay: Induction of apoptosis in human HL60 cells assessed as decrease in Bcl-2 protein level at 5 to 10 uM after 24 hrs by Western blotting; assay type: functional, cell-based
[3] = tested on: HL-60; assay: Cell cycle arrest in human HL60 cells assessed as accumulation at G0/G1 phase at 10 uM after 24 hrs using propidium iodide staining by flow cytometry; assay type: functional, cell-based
[4] = tested on: HL-60; assay: Cytotoxicity against human HL60 cells after 24 hrs by MTT assay; assay type: functional, cell-based
[5] = tested on: HL-60; assay: Cell cycle arrest in human HL60 cells assessed as accumulation at sub-G1 phase after 12 to 24 hrs using propidium iodide staining by flow cytometry; assay type: functional, cell-based
[6] = tested on: HL-60; assay: Induction of apoptosis in human HL60 cells assessed as increase of ROS production using H2DCFDA after 3 hrs by flow cytometry in presence of N-acetylcysteine; assay type: functional, cell-based
[7] = tested on: HL-60; assay: Cell cycle arrest in human HL60 cells assessed as accumulation at sub-G1 phase at 10 uM after 24 hrs using propidium iodide staining by flow cytometry in presence of N-acetylcysteine; assay type: functional
[8] = tested on: HL-60; assay: Induction of apoptosis in human HL60 cells assessed as formation of membrane blebbing at 10 uM after 24 hrs by fluorescence microscopic analysis; assay type: functional, cell-based
[9] = tested on: HL-60; assay: Induction of apoptosis in human HL60 cells assessed as increase of caspase-3-mediated Ac-DEVD-pNA cleavage at 10 uM after >12 hrs; assay type: functional, cell-based
[10] = tested on: HL-60; assay: Induction of apoptosis in human HL60 cells assessed as increase in Bax protein level after 24 hrs by Western blotting; assay type: functional, cell-based
[11] = tested on: HL-60; assay: Cell cycle arrest in human HL60 cells assessed as accumulation at sub-G1 phase at 5 uM after 24 hrs using propidium iodide staining by flow cytometry (reference value: 6.6%); assay type: functional
[12] = tested on: HL-60; assay: Induction of apoptosis in human HL60 cells assessed as increase in cytochrome c release from mitochondria to cytosol after 24 hrs by Western blotting; assay type: functional, cell-based
[13] = tested on: HL-60; assay: Cell cycle arrest in human HL60 cells assessed as accumulation at sub-G1 phase at 5 to 10 uM using propidium iodide staining by flow cytometry; assay type: functional, cell-based; conditions: TDE = time-dependent effect
[14] = tested on: HL-60; assay: Cell cycle arrest in human HL60 cells assessed as accumulation at G2/M phase at 10 uM after 24 hrs using propidium iodide staining by flow cytometry; assay type: functional, cell-based
[15] = tested on: HL-60; assay: Cell cycle arrest in human HL60 cells assessed as accumulation at sub-G1 phase at 10 uM after 24 hrs using propidium iodide staining by flow cytometry (reference value: 6.6%); assay type: functional
[16] = tested on: HL-60; assay: Induction of apoptosis in human HL60 cells assessed as increase of caspase-3-mediated Ac-DEVD-pNA cleavage at 10 uM after 12 hrs; assay type: functional, cell-based
[17] = tested on: HL-60; assay: Induction of apoptosis in human HL60 cells assessed as formation of chromatin condensation at 10 uM after 24 hrs by Hoechst 33342 and propidium iodide staining; assay type: functional, cell-based
[18] = tested on: HL-60; assay: Induction of apoptosis in human HL60 cells assessed as increase of ROS production using H2DCFDA after 3 hrs by flow cytometry; assay type: functional, cell-based
[19] = tested on: HL-60; assay: Induction of apoptosis in human HL60 cells assessed as formation of cell shrinkage at 10 uM after 24 hrs by fluorescence microscopic analysis; assay type: functional, cell-based
[20] = tested on: HL-60; assay: Cell cycle arrest in human HL60 cells assessed as accumulation at sub-G1 phase at 5 uM after 12 hrs using propidium iodide staining by flow cytometry (reference value: 5.2%); assay type: functional
[21] = tested on: HL-60; assay: Cell cycle arrest in human HL60 cells assessed as accumulation at sub-G1 phase at 10 uM after 12 hrs using propidium iodide staining by flow cytometry (reference value: 5.2%); assay type: functional
[22] = tested on: HL-60; assay: Induction of apoptosis in human HL60 cells assessed as increase in Bak protein level after 24 hrs by Western blotting; assay type: functional, cell-based
[23] = tested on: HL-60; assay: Induction of apoptosis in human HL60 cells assessed as formation of apoptotic body at 10 uM after 24 hrs by fluorescence microscopic analysis; assay type: functional, cell-based

In the case of Cc1cc(O)c2c(c1)C(=O)C=CC2=O [RAMENTACEONE], the Activity [1] is reported as “Dose-dependent effect”, the Activity [2] is reported as “Active” and the Activity [3] is reported as “Active”. For the same compound, the Activity [4] was “Dose-dependent effect”, the IC50 ([4]; HL-60, 24 h) was 8.75 µM and the Activity [5] was “Dose-dependent effect”. For the same compound, the Activity [6] was “inactive”, the Activity [7] was 12.3% and the Activity [8] was “Active”. For the same compound, the Activity [9] was “inactive”, the Activity [10] was “Dose-dependent effect” and the Activity [11] was 12.6%. The Activity [12] was “Dose-dependent effect”, the Activity [13] was “tde” and the Activity [14] was “Active”. The Activity [15] was 27.5%, the Activity [16] was “Active” and the Activity [17] was “Active”. For the same compound, the Activity [18] was “Dose-dependent effect”, the Activity [19] was “Active” and the Activity [20] was 10.3%. The Activity [21] was 17.1%, the Activity [22] was “Dose-dependent effect” and the Activity [23] was “Active”.

From ChEMBL document CHEMBL1949608, “Induction of apoptosis in HL-60 cells through the ROS-mediated mitochondrial pathway by ramentaceone from Drosera aliciae” (J Nat Prod, 2012)
